The subject of one assay is RAMOS cell lysate. The experiment in a line: Gel-based ABPP of alkyne probes in RAMOS cell lysate. The conditions noted are these: RAMOS cell lysate 1 mg/mL, 10 and 100 μM, 1 h. More on the design: species or system human. From the text:
Greater reactivity yields a higher isoDTB ratio. Ratios ≥ 4 (dashed line) are considered liganded.
Nonetheless, since the formation of the glutathione conjugate was clearly notable, we wanted to investigate the reactivity of 1a with a more diverse set of thiols. Therefore, we examined all three electrophilic groups for their ability to label cysteines in whole-cell lysates. First, alkyne-functionalized reagents (1b–3b, for structures, see Scheme S1) were synthesized to allow for gel-based activity-based protein profiling (ABPP). […] Since all compounds share the same scaffold and differ only by their reactive functional group, we anticipate that any differences in labeling intensity should primarily stem from differences in electrophilicity. […] CAPA reporter cells were prepared by transiently transfecting HEK293T with a plasmid enabling the cytoplasmic expression of the Halotag protein, and concentration-dependent cell permeability was assessed. […]
Cells were harvested by centrifugation, washed trice with ice cold PBS (Ph 7.4) and stored at -70°C until lysis. […] Lysates were cleared by centrifugation (15’000 rcf) and the proteinconcentration was determined via BCA assay (Pierce BCA Protein Assay Kit, Thermo Fisher Scientific) according to the vendors instructions. […]

The target in the next assay is T1, wt EGFR (Homo sapiens, UniProt P00533).
T1 construct: purchased Sino Biological
The assay is described as follows: biochemical. Type of assay: biochemical.

The next assay has as its target wild-type EGFR (Homo sapiens, UniProt P00533). The assay is described as follows: biochemical. The conditions noted are these: in vitro kinase assay.
A further assay has as its target EGFR in A431 cells (Homo sapiens, UniProt P00533). The assay is described as follows: Gel-based ABPP of EGFR probes in A431 cells. The conditions noted are these: for in-cell EGFR labeling, competition with excess Afatinib: pretreatment Afatinib 5 μM; for target selectivity in time-course labeling: 1 µM, up to 6 h.
The test system of another assay is A431 cells. The assay is described as follows: Proteomic pulldown with EGFR probes in A431 cells (LFQ). Format: cell-based, human. The conditions noted are these: for # Labelled Proteins (total number of significantly enriched proteins) / off-targets enriched: 10 μM probe. How it is done: To gain a more detailed understanding of which proteins are labeled by the corresponding probe, we performed a proteomic pulldown experiment. […] . […] Additionally, we also wanted to investigate proteomic engagement under more extreme conditions, using a 10 μM probe concentration. […] Even though both probes enriched a large portion of proteins, EGFR was still among the most prominent hits for the phosphonamidate probe and only to a lesser extent for 5 (Figure S11). Overall, we observed a certain degree of complementarity between the off-targets obtained from the corresponding probes (Figures j and S12). […] Most prominently, selenoprotein SELENOT and solute carrier protein SLC25A32 were only enriched by phosphonamidate probe 7. On the other hand, several proteins like the cysteine proteases ATG4B, CTSB, and BOLA2 were exclusively enriched by DMAC probe 5.
Figure S 10: Volcano blots obtained from label free quantification of the proteins from streptavidin pulldowns performed with 1 µM probe 5 or 7 (in comparison to the DMSO treated sample). Proteins were identified and quantified and blotted as described in 4.8: Variance stabilization and Perseus-type […]
At the tested concentration, both probes solely enrich
EGFR. Data was obtained from 4 independent replicates.
Figure S 11: Volcano blots obtained from label free quantification of the proteins from streptavidin pulldowns performed with 10 µM probe 5 or 7 (in comparison to the DMSO treated sample). Proteins […]
imputation were enabled. Proteins surpassing a log 2 fold-change of 2.5 and a -log10 adjusted p-value […]
proteins can be found in Supplementary Table 1. Data was obtained from 4 independent replicates. […]
4.8 In-cell protein labeling and s ample preparation for proteomic pull-down Cells were cultured, treated and lysed as described in 4.4. Lysates (approx. 200 μg of protein each) […]
Afterwards, the samples we re processed according to a procedure published by Becker et al. 10: A total of 50 μl of mixed hydrophobic and hydrophilic carboxylate -coated magnetic beads (1:1, prewashed with PBS; Seramag™, Cytavia) was added to the click reaction mixture followed by 600 μl of absolute ethanol to precipitate the proteins. Beads were washed thrice with of 80% ethanol and proteins were eluted by two sequential washes of 0.2% SDS in PBS. The eluted proteins were directly transferred onto 30 μl of streptavidin-coated magnetic beads (prewashed with 0.2% SDS in PBS; New England Biolabs) and incubated on a shaker for 1 h at r.t. Streptavidin-beads were washed thrice with 8 M urea, PBS pH 7.4 and MilliQ water. Washed beads were resuspended in 100 mM ABC buffer, followed by […]
trypsinized overnight at 37 °C (1.5 µg/sample, Promega). The supernatant was removed, acidified to 1% TFA, centrifuged at 10‘000 rcf for 5 minutes and stored at -20 °C until measurement. Before MS/MS analysis a quality-control run was conducted on a Waters XEVO G2-XS QTof instrument to ensure […]
Samples were diluted based on the QC-runs to ensure equal loading. LC-MS/MS analysis was performed using an UltiMate 3000 RSLC nano LC system coupled on -line to an Orbitrap Fusion mass spectrometer (Thermo Fisher Scientific). For sample loading a PepMap C -18 trap-column (Thermo Fischer Scientific) of 0.075 mm ID x 50 mm length, 3 μm particle size and 100 Å pore size was used. The loading mobile phase A contained 1% acetonitrile and 0.05% TFA acid in water, and mobile phase B 0.05% TFA acid in acetonitrile. Reversed-phase separation was performed using a 50 cm analytical column (in-house packed with Poroshell 120 EC-C18, 2.7μm, Agilent Technologies) with mobile phase A contained 0.1% formic acid in water, and mobile phase B 0.1% formic acid in acetonitrile using a 93 […]
ions with charge states 2-4 were isolated with a mass selecting quadrupole (isolation window 1.6 m/z)

Another assay deals with RAMOS cells. The experiment in a line: Off-target reactivity in EGFR-negative RAMOS cells (gel-based). The conditions noted are these: up to 10 μM, 1 h, 1 μM time course.
Another assay deals with T2, BTK in RAMOS cells (Homo sapiens, UniProt Q06187).
T2 construct: we performed a gel-based ABPP experiment using RAMOS cells; host or cells: RAMOS
The assay is described as follows: Gel-based ABPP of BTK probes in RAMOS cells. The conditions noted are these: 250 nM, 1 h, 37 °C. Type of assay: cell-based. From the text: Motivated by these promising results, we wanted to extend the scope toward a different class of kinase inhibitors. […] Inspired by these findings, we synthesized a series of VPA probes based on the pyrazolo[3,4-d]-pyrimidine scaffold (8–11, Figure a), each harboring a different aromatic linker. To compare their reactivity and selectivity for BTK, we performed a gel-based ABPP experiment using RAMOS cells. […] In contrast, for all four PA probes, only one intense band was obtained at the same height as BTK. […] Analogously to Afatinib-derived probe 4a, we wanted to investigate whether one stereoisomer might show preferential binding.
(b) Comparison of the in-cell reactivity profiles of BTK probes 8–12 in RAMOS cells (250 nM, 1 h, 37 °C) analyzed by gel-based ABPP. […]
Fluorescence was monitored over 4 h at 30 °C every 60 seconds (λex = 360 nm and λem = 492 nm).
Background‑subtracted fluorescence intensity (RFU) was plotted against time (s), and data were fitted to a single‑phase association model: […]
4.7 In-cell protein labeling and in -gel fluorescence analysis […]
Afterwards, the precipitate was redissolved in 40 µl 8 M urea (100 mM Tris, pH 8), 8 µl Laemmli buffer were added and the samples were denatured at 95 °C for 5 minutes. Proteins were seperated via SDS - PAGE (12% or 4-20% acrylamide gels) and analyzed on a Gel Doc XR+ (Bio-Rad, USA). […]

Several values for one entry are separate records, joined by “and”; a condition that tells them apart may be missing. Equal entries are not always repeated. Entries after “also recorded” stand apart in the source; their conditions may differ. Where two headings read alike, the source gives them in different places.

Sequence of EGFR in A431 cells (P00533 25-1210): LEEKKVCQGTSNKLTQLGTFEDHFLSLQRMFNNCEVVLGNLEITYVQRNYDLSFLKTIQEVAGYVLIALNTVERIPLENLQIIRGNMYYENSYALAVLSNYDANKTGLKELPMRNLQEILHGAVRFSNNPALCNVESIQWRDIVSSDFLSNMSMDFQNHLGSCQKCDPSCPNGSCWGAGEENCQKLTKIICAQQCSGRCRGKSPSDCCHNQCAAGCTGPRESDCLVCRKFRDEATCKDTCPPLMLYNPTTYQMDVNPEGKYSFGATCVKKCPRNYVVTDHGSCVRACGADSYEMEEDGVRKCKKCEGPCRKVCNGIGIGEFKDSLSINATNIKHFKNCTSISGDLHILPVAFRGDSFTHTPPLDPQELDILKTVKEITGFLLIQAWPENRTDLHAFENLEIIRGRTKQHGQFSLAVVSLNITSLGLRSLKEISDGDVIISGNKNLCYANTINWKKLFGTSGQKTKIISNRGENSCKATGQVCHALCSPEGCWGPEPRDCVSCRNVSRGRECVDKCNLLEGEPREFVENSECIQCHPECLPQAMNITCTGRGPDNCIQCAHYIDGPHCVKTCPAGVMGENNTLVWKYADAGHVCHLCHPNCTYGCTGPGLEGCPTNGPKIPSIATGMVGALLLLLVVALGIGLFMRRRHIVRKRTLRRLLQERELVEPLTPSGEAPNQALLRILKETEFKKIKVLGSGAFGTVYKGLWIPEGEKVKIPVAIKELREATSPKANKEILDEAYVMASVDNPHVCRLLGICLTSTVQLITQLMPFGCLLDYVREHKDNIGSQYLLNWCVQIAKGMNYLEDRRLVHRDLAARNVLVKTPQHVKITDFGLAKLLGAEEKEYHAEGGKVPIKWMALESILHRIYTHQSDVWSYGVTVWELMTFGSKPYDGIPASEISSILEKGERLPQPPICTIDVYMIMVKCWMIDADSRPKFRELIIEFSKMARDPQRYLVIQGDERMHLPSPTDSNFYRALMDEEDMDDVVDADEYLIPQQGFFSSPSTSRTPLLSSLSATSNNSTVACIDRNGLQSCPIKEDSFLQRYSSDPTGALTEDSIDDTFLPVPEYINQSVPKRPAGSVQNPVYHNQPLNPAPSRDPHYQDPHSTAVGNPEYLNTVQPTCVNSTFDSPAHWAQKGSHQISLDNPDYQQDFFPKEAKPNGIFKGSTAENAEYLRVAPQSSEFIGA
T1 sequence (P00533 25-1210): as above
Sequence of wild-type EGFR (P00533 25-1210): as above
T2 sequence (Q06187 whole entry): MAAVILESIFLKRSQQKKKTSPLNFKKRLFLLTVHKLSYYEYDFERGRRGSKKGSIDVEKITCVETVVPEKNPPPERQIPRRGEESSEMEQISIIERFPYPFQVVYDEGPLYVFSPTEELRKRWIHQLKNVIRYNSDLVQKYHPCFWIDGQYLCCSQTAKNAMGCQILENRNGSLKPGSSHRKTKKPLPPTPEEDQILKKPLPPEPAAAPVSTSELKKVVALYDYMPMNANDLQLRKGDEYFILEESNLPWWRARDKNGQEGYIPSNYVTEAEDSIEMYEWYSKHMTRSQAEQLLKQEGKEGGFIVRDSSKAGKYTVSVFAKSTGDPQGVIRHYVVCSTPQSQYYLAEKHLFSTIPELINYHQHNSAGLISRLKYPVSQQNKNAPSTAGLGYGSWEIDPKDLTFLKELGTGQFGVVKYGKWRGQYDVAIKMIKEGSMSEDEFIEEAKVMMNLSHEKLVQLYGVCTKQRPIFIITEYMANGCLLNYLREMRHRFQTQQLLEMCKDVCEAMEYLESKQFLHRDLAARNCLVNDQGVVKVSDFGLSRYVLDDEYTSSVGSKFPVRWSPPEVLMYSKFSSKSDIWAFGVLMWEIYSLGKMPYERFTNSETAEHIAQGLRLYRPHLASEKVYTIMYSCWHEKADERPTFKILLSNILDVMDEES
Protocol for EGFR in A431 cells: With this probe in hand, we treated wild-type EGFR overexpressing A431 cells at a probe concentration of 1 μM for 1 h at 37 °C, followed by lysis and fluorescent labeling via CuAAC.
For EGFR -probes, A431 -cells were seeded at 60’000 cells/well in a 6-well plate (Greiner Bio-One) and incubated until 80 -100% confluencey. Before treatment , cells were washed twice with PBS. Cells were incubated with the indicated compound concentration (final conc. of 1% DMSO in RPMI -FCS ) at 37 °C.
After the incubati on, cells were washed twice with ice cold PBS and lysed in ice -cold RIPA -buffer containing cOmplete TM protease inhibitor (Roche), 50 mM iodo acetamide (I1149, Sigma Aldrich) and
Following a 10 min incubation at 37 °C lysat es were transferred
TBTA, 0.5 mM TCEP, 0.05 mM fluorescein-N3) in a shaker (800 rpm, 37 °C) for 45 minutes. Afterwards, proteins were precipitated with the 4-fold volume of acetonitrile and cetrifuged (14’00 rcf, 5 min). The solvent was removed and precipitates were resuspended in 80% EtOH followed by another round of centrifugation (10’000 rcf, 5 min). The pellets were aspirated and left to dry on air for 5-10 minutes.
and bands were quantified in ImageLab 6.1.

`C#Cc1ccc(NC(=O)CCl)cc1` [3b]: in the assay on RAMOS cell lysate, the “fluorescent labeling signal” value is “most intense fluorescent signal”.
A word on the Ki: it is the equilibrium dissociation constant of an inhibitor or competing ligand from its target. By IC50 is commonly meant the concentration at which inhibition is half-maximal. A lower IC50 goes with higher potency. Turning to `C=CP(=O)(Nc1cc2c(Nc3ccc(F)c(Cl)c3)ncnc2cc1O[C@H]1CCOC1)OCC` (stereo partly shown) [4a], on wt EGFR (4a 2–50 nM), the affinity, expressed as Ki, was 2.43 nM and the k inact was 0.24 × 10^–3 s^–1. The “k inact/K I ratio” value on wt EGFR (direct comparison) was 97 × 10^3 M^–1 s^–1. The IC50 against wild-type EGFR is 0.68 nM and 0.67 nM.
For `C#CCCOP(=O)(C=C)Nc1cc2c(Nc3ccc(F)c(Cl)c3)ncnc2cc1O[C@H]1CCOC1` (stereo partly shown) [4c], the “in-cell EGFR labeling, competition with excess Afatinib” value at EGFR in A431 cells (1 h 37 °C) was “selective covalent engagement of EGFR”.
Regarding `C#CCOc1cc2ncnc(Nc3ccc(F)c(Cl)c3)c2cc1NC(=O)/C=C/CN(C)C` [compound 5, reference compound], on EGFR in A431 cells, the “target selectivity in time-course labeling” value was “significantly higher off-target labeling”. Moreover, in the assay on A431 cells (A431 cells, 1 μM probe, 2 h 37 °C, log2-fold change >2.5, adjusted p <0.01), the “significantly enriched proteins” value is “solely enrich”. Moreover, in the assay on A431 cells (A431 cells), the “# Labelled Proteins (total number of significantly enriched proteins)” value is 327 and the off-targets enriched is 118. The “off-target labeling in EGFR-negative cells” value in the assay on RAMOS cells was “significant fluorescent labeling of off-targets”.
For the molecule `C#CCOc1cc2ncnc(Nc3ccc(F)c(Cl)c3)c2cc1NP(=O)(C=C)OCC` (stereo not shown) [compound 7], the “target selectivity in time-course labeling” value on EGFR in A431 cells was “did not decrease”. At EGFR in A431 cells (1 h 37 °C), the “lowest concentration with detectable labeling signal” value is not above 5 nM and the “in-cell EGFR labeling, competition with excess Afatinib” value is given as “EGFR-selective labeling”. In the assay on A431 cells, the “significantly enriched proteins” value is recorded as “solely enrich; also recorded: EGFR is the only protein significantly enriched”. Also, in the assay on A431 cells (A431 cells), the “# Labelled Proteins (total number of significantly enriched proteins)” value stood at 119 and the off-targets enriched stood at 327. Besides, the “off-target labeling in EGFR-negative cells” value in the assay with RAMOS cells is reported as “almost no labeling”.
In the case of `C#CCCOP(=O)(C=C)Nc1ccccc1Cn1nc(-c2ccc(Oc3ccccc3)cc2)c2c(N)ncnc21` (stereo not shown) [compound 9], at BTK in RAMOS cells, the “in-cell reactivity profile (gel bands)” value is listed as “most intense labeling”.

Values taken from PMC12951430, “Modular Vinyl Phosphonamidates for Cysteine-Directed Protein Targeting” (Journal of the American Chemical Society, 2026).
